These results are taken from patent publication US20230131501A1, “THERAPEUTIC USES OF INHIBITORS OF THE RNA-BINDING PROTEIN HuR” (University of Kansas, priority 2020, published 2023).

Where two headings read alike, the source gives them in different places. {Fluorescein} = fluorescein label

In data set [1] the target is T1, HuR protein interaction with the ARE site of Msi1 mRNA (HuR-Msi1^ARE) (Homo sapiens, UniProt Q15717).
T1 construct: full-length human HuR protein was produced by the KU COBRE-PSF Protein Purification Group; made in house
As to the kind of experiment: Fluorescence polarization (FP) assay, inhibition of HuR-Msi1 ARE interaction. In kind it is binding. To be noted: full-length human HuR, read-out: Ki via FP assay. From the text: (§1) A fluorescence polarization (FP)-based binding assay was utilized to assess the inhibition of HuR protein interaction with the ARE site of Msi1 mRNA (“HuR-Msi1^ARE”) by compounds of interest. Briefly, full-length human HuR protein was produced by the KU COBRE-PSF Protein Purification Group and Bcl2, Msi1 and XIAP mRNA sequences (16 nt) were designed based on literature precedent^23,24,31,32. Fluorescein labeled RNAs were purchased from Dharmacon with the following sequences: Msi1 RNA: 5′-GCUUUUAUUUAUUUUG-3′-fluorescein; Bcl-2 RNA: 5′-AAAAGAUUUAUUUAUU-3′-fluorescein; XIAP RNA: 5′-UAGUUAUUUUUA UGUC-3′-fluorescein, and a 16-nt degenerative RNA with 3′-fluorescein label was used as a negative control.
In general terms: Polarisation of emitted light reports the rotation of a fluorescent probe.

The subject of the next data set is MDA-MB-231. In words: Cytotoxicity assay (WST-8). In kind it is cell-based. To be noted: Homo sapiens, read-out: Cytotoxicity (IC50, μM) MDA-MB-231. On the procedure:
The cytotoxicity of the tested compounds in several cancer cell lines (HCT116 β/w, MIAPaCa-2, and MDA-MB-231) was determined by a cytotoxicity assay, where the results are provided in Table 1. Cells were seeded in 96-well culture plates (5,000 cells/well) and treated with titrated compounds in triplicate. After 96 h incubation, cell growth medium was removed and proliferation reagent WST-8 (Sigma) was added to each well and incubated at 37° C. for 1-3 h. Absorbance was then measured with a plate reader at 450 nm with correction at 650 nm. The results were expressed as the percentage of absorbance of treated wells versus that of vehicle control. IC50, the drug concentration causing 50% growth inhibition, was calculated via sigmoid curve fitting using GraphPad Prism 5.0. […]
(Formazan colour is commonly taken as a measure of viable cells.)

The subject of another data set is MIAPaCa-2. In words: Cytotoxicity assay (WST-8). Format: cell-based. To be noted: Homo sapiens, MIA PaCa-2, 96 h incubation. How it is done: (§2) Cells were seeded in 96-well culture plates (5,000 cells/well) and treated with titrated compounds in triplicate. After 96 h incubation, cell growth medium was removed and proliferation reagent WST-8 (Sigma) was added to each well and incubated at 37° C. for 1-3 h. Absorbance was then measured with a plate reader at 450 nm with correction at 650 nm. The results were expressed as the percentage of absorbance of treated wells versus that of vehicle control.

The subject of a further data set is HCT116 β/w. In words: Cytotoxicity assay (WST-8). In kind it is cell-based. To be noted: Homo sapiens, HCT-116, 96 h incubation. How it is done:
as §2

Data set [2] concerns PARP cleavage, LC3 conversion, and RIP3 activation. In words: Western blot of cell death mechanisms. Format: cell-based. From the text: FIGS. 8A-8C provide the results of Western blot analysis illustrating that KH-3 decreases the protein levels of HuR targets in HCT-116 β/w cells (FIG. 8A) and MDA-MB-231 cells (FIG. 8B) and is involved in cell death mechanisms by inducing PARP cleavage, LC3 conversion, and RIP3 activation (FIG. 8C), according to the working examples.
(§3) As HuR promotes stability of its target mRNAs, it is expected that HuR-inhibitors will block HuR function and shorten the half-life (t1/2) of target mRNAs. mRNA stability was determined via quantitative real-time PCR (qRT-PCR) after co-treatment of compounds of the present technology and Actinomycin D (a transcription inhibitor). […] Because HuR also increases the translation of target mRNAs, the effect of compounds of the present technology was tested on protein levels of HuR targets by Western blot analysis.
In general terms: In western blotting, separated proteins are transferred to a membrane and probed.

Data set [3] has as its system protein levels of HuR targets in MDA-MB-231 cells. As to the kind of experiment: Western blot of HuR targets. In kind it is cell-based. How it is done: as §3
The subject of data set [4] is protein levels of HuR targets in HCT-116 β/w cells. As to the kind of experiment: Western blot of HuR targets. In kind it is cell-based. On the procedure: as §3
Data set [5] relates to HuR target mRNAs (Bcl-2, XIAP, Msi1, HuR) in HCT-116 β/w cells. In words: mRNA stability by qRT-PCR after co-treatment with Actinomycin D. In kind it is cell-based. On the set-up: dose or concentration left out as unconfirmed. On the procedure: HuR target mRNA levels were measured by qRT-PCR.
as §3

Data set [6] concerns docetaxel-resistant MDA-MB-231 cell line (231-TR). In words: Cytotoxicity assay, docetaxel-resistant cells. Format: cell-based. To be noted: 231-TR vs MDA-MB-231. On the procedure:
(§4) To further mimic clinical conditions and assess overcoming acquired chemo-resistance via compounds of the present technology, docetaxel-resistant and doxorubicin-resistant MDA-MB-231 cells were generated by continuous exposure of cells to increasing concentrations of docetaxel (TXT) or doxorubicin (DXR). Cytotoxicity assays were then performed to assess the chemo-resistance of the produced cell lines as well as assess the sensitivity of such chemo-resistant cell lines to compounds of the present technology.
(§5) Cytotoxicity assays were then performed utilizing concentrations of KH-3 that were below the lethal threshold for the compound (a “sub-lethal concentration”) in combination with docetaxel or doxorubicin to determine whether compounds of the present technology may sensitize cancer cell lines (including chemo-resistance cancer cell lines) to chemotherapy. FIGS. 11A-11B illustrate that sub-lethal concentrations of KH-3 sensitizes both MDA-MB-231 cells and docetaxel-resistant 231-TR cells to docetaxel treatment (FIGS. 11A-11B), and FIGS. 11C-D illustrate that sub-lethal concentrations of KH-3 sensitizes both MDA-MB-231 cells and doxorubicin-resistant 231-DR cells to doxorubicin treatment (FIGS. 11C-11D).

Data set [7] concerns Musashi 2 (Msi2) mRNA in PC3 cells. As to the kind of experiment: mRNA level of HuR target after chemotherapy. Format: cell-based. From the text: FIGS. 1A-1F provide the results of studies illustrating RNA-binding protein Hu antigen R (HuR) is involved in chemo/radiation-induced tumor response, according to the working examples. […] HuR knock-down by siRNA sensitized cancer cells to X-ray radiation, with an enhancement ratio (ER) of 1.5 versus the negative control (NC) siRNA (FIG. 1F).

The test system of data set [8] is doxorubicin-resistant MDA-MB-231 cell line (231-DR). In words: Cytotoxicity assay, doxorubicin-resistant cells. To be noted: 231-DR vs MDA-MB-231. In kind it is cell-based. How it is done:
as §4, §5

Data set [9] addresses T2, full-length human HuR protein (Homo sapiens, UniProt Q15717).
T2 construct: full-length human HuR protein was produced by the KU COBRE-PSF Protein Purification Group; made in house
In words: FP-based binding of fluorescein-labeled RNAs to HuR. To be noted: 16 nt RNA oligo, FITC-RNA 2 nM; read-out: Kd of HuR binding with fluorescein-labeled target RNA. How it is done:
FIG. 3 provides the results of a fluorescence polarization (FP)-based binding assay, illustrating that full length HuR binds to FITC-Bcl-2, Msi1, and XIAP RNA but not to scrambled oligo-FITC, according to the working examples. The concentration of FITC-RNA used in the assay is 2 nM.
as §1

Setting [10] is: MDA-MB-231, 96 h incubation, WST-8.

The term Ki denotes a measure of affinity in units of concentration, obtained from inhibition or displacement. The IC50 is the concentration needed to halve the response being measured. The Kd is the concentration at which binding is half-saturated.

T1 sequence (Q15717 whole entry): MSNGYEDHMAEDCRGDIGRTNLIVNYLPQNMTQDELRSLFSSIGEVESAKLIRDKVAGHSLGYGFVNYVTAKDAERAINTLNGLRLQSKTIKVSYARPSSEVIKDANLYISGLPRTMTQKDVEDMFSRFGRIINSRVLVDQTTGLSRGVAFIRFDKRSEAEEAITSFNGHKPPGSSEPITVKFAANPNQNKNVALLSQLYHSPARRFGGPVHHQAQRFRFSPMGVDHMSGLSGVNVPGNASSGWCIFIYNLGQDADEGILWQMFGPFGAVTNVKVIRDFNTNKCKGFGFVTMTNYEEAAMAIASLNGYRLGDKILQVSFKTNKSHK
T2 sequence (Q15717 whole entry): as above

`O=C(O)/C=C/c1cc2cc(NS(=O)(=O)c3ccccc3)ccc2s1` [KH-1A, (E)-3-(5-(phenylsulfonamido)benzo[b]thiophen-2-yl)acrylic acid]: in data set [1], the Ki amounted to 5.82 µM. Also, the IC50 with MDA-MB-231 (setting [10]), with MIAPaCa-2 and in the data set on HCT116 β/w was over 100 µM throughout.

As for `CCOC(=O)/C=C/c1cc2cc(NS(=O)(=O)c3ccccc3)ccc2s1` [KH-1B, (E)-ethyl 3-(5-(phenylsulfonamido)benzo[b]thiophen-2-yl)acrylate], the Ki in data set [1] was over 20 µM. In addition, the IC50 amounted to 41.8 µM in the data set on MDA-MB-231 (setting [10]), 37.6 µM in the data set with MIAPaCa-2 and 35.6 µM with HCT116 β/w.

Take `O=C(/C=C/c1cc2cc(NS(=O)(=O)c3ccccc3)ccc2s1)NO` [KH-1]: the Ki in [1] was found to be 9.2 µM. In addition, the IC50 was 0.98 µM in the data set on MDA-MB-231 (MDA-MB-231, 96 h); 1.21 µM in the data set with MIAPaCa-2; 0.86 µM with HCT116 β/w.

As for `Cc1ccc(S(=O)(=O)Nc2ccc3sc(/C=C/C(=O)O)cc3c2)cc1` [KH-2A, (E)-3-(5-(4-methylphenylsulfonamido)benzo[b]thiophen-2-yl)acrylic acid], the Ki in [1] was 2.92 µM. Also, the IC50 in the data set on MDA-MB-231 (setting [10]), in the data set on MIAPaCa-2 and in the data set with HCT116 β/w was over 100 µM throughout.

On to `CCOC(=O)/C=C/c1cc2cc(NS(=O)(=O)c3ccc(C)cc3)ccc2s1` [KH-2B, (E)-ethyl 3-(5-(4-methylphenylsulfonamido)benzo[b]thiophen-2-yl)acrylate], for which the inhibition constant Ki in data set [1] was over 20 µM. Besides, the IC50 was found to be 43 µM with MDA-MB-231 (setting [10]), 39.5 µM in the data set on MIAPaCa-2 and 40.1 µM in the data set on HCT116 β/w.

For the molecule `Cc1ccc(S(=O)(=O)Nc2ccc3sc(/C=C/C(=O)NO)cc3c2)cc1` [KH-2], the Ki in [1] was determined as 5.55 µM. For the same molecule, the IC50 was 1.46 µM with MDA-MB-231 (MDA-MB-231, 96 h); 2.33 µM in the data set with MIAPaCa-2; 1.42 µM with HCT116 β/w.

For `CC(C)(C)c1ccc(S(=O)(=O)Nc2ccc3sc(/C=C/C(=O)O)cc3c2)cc1` [KH-3A, (E)-3-(5-(4-(tert-butyl)phenylsulfonamido)benzo[b]thiophen-2-yl)acrylic acid], the inhibitory constant (Ki) in data set [1] came to 1.38 µM. Moreover, the IC50 with MDA-MB-231 (setting [10]), with MIAPaCa-2 and in the data set with HCT116 β/w was over 100 µM in each case.

On to `CCOC(=O)/C=C/c1cc2cc(NS(=O)(=O)c3ccc(C(C)(C)C)cc3)ccc2s1` [KH-3B, (E)-ethyl 3-(5-(4-(tert-butyl)phenylsulfonamido)benzo[b]thiophen-2-yl)acrylate], for which the “cell death mechanisms (PARP cleavage, LC3 conversion, RIP3 activation)” value in data set [2] is “not exhibited”. In addition, the “protein levels of HuR targets” value in [3] and in data set [4] was “not exhibited” each time. Moreover, in data set [1], the Ki is over 20 µM. In addition, the IC50 came out at 45.6 µM in the data set with MDA-MB-231 (setting [10]), 45.5 µM in the data set with MIAPaCa-2 and 68.2 µM in the data set on HCT116 β/w. In addition, the “stability of HuR target mRNAs (Bcl-2, XIAP, Msi1, HuR mRNA)” value in [5] is “not exhibited”.

For the molecule `Cc1cc(C)c(S(=O)(=O)Nc2ccc3sc(/C=C/C(=O)O)cc3c2)c(C)c1` [KH-4A, (E)-3-(5-(2,4,6-trimethylphenylsulfonamido)benzo[b]thiophen-2-yl)acrylic acid], in data set [1], the Ki came to 2.92 µM. Also, the IC50 in the data set on MDA-MB-231 (setting [10]), in the data set on MIAPaCa-2 and in the data set on HCT116 β/w was over 100 µM in each case.

For `CCOC(=O)/C=C/c1cc2cc(NS(=O)(=O)c3c(C)cc(C)cc3C)ccc2s1` [KH-4B, (E)-ethyl 3-(5-(2,4,6-trimethylphenylsulfonamido)benzo[b]thiophen-2-yl)acrylate], the Ki in [1] is over 20 µM. Moreover, the half-inhibitory concentration (IC50) with MDA-MB-231 (setting [10]) was over 100 µM; with MIAPaCa-2 it was 30.4 µM; with HCT116 β/w it was 91.4 µM.

For `Cc1cc(C)c(S(=O)(=O)Nc2ccc3sc(/C=C/C(=O)NO)cc3c2)c(C)c1` [KH-4], the Ki in data set [1] amounted to 1.41 µM. Also, the IC50 in the data set on MDA-MB-231 (MDA-MB-231, 96 h) was determined as 1.04 µM.

As to `CC(=O)O[C@@]12CO[C@@H]1C[C@H](O)[C@@]1(C)C(=O)[C@H](O)C3=C(C)[C@@H](OC(=O)[C@H](O)[C@@H](NC(=O)OC(C)(C)C)c4ccccc4)C[C@@](O)([C@@H](OC(=O)c4ccccc4)[C@H]21)C3(C)C` [docetaxel], the “IC50 in 231-TR compared to parental cell line” value in data set [6] is given as “more than 8 fold”. For the same molecule, in data set [7], the “mRNA levels of HuR target Musashi 2 (Msi2)” value is given as “increased the mRNA levels”.

Regarding `COc1cccc2c1C(=O)c1c(O)c3c(c(O)c1C2=O)C[C@@](O)(C(=O)CO)C[C@@H]3O[C@H]1C[C@H](N)[C@H](O)[C@H](C)O1` [doxorubicin], in [8], the “IC50 in 231-DR compared to parental cell line” value was “about 10 fold”.

Regarding “Bcl-2 RNA: Fluorescein labeled 16 nt RNA 5′-AAAAGAUUUAUUUAUU-3′-fluorescein (RNA, 3' {Fluorescein}, backbone not given here)”, the Kd in data set [9] was found to be 0.0063 µM.

With “Msi1 RNA: Fluorescein labeled 16 nt RNA 5′-GCUUUUAUUUAUUUUG-3′-fluorescein (RNA, 3' {Fluorescein}, backbone not given here)”, the Kd in data set [9] turned out to be 0.002 µM.

Consider “XIAP RNA: Fluorescein labeled 16 nt RNA 5′-UAGUUAUUUUUA UGUC-3′-fluorescein (UAGUUAUUUUUAUGUC; RNA, 3' {Fluorescein}, backbone not given here)”, for which the Kd in [9] is 0.0035 µM.
